The subject of one series is ICR mice. Kind of series: Toxicity of NAPAP in mice: mortality and behaviour. Type of series: in vivo. Here is the method: (§1) Adult male ICR mice (30±5 g) were employed for all experiments. Animals were housed under controlled condition (25±2° C.) and 12 h light/dark cycle, and allowed free access to food and water, but fasted overnight before treatment. Animals were divided into several groups including control group (not receiving any treatment), negative control (receiving TSM alone), positive control (receiving only NAPAP), and experimental groups receiving NAPAP and TSM together. Each experimental group consisted of 6 mice. NAPAP was dissolved in normal saline (pH 7.4) and administered inraperitonially (i.p.) with a dose of 400 mg/kg. TSM was dissolved in distillate water at pH 7.2 and administered i.p. with doses of 10, 20, 30, or 40 mg/kg 2 h before intoxication. All animals were sacrificed by ether anesthesia 24 h after the NAPAP exposure. Blood samples were withdrawn by cardiac puncture for determination of alanine aminotransferase (ALT) activity using commercially available kit (Sigma 505-P). Liver was isolated and perfused with normal saline to wash out the blood. It was then used for determination of GSH, oxidized glutathione (GSSG), superoxide dismutase (SOD), thiobarbituric acid reactive substances (TBARS), and reduced forms of coenzymes Q9 (CoQ9) and Q10 (CoQ10).
The behavior of the animals in experimental group resembled the control group by movement activity. […]

The subject of series [1] is alanine aminotransferase (ALT) activity. Description: Alanine aminotransferase (ALT) activity in blood of NAPAP-intoxicated mice. Type of series: in vivo. Particulars: NAPAP 400 mg/kg i.p. alone; 24 h of exposure; mean ± SEM. The procedure: as §1
Another series concerns hepatic GSH. Description: Hepatic GSH assay. The format is in vivo, mice. The procedure: as §1, with “Blood samples were withdrawn by cardiac puncture for determination of alanine aminotransferase (ALT) activity using commercially available kit (Sigma 505-P). Liver was isolated and perfused with normal saline to wash out the blood. It was then used for determination of GSH, oxidized glutathione (GSSG), superoxide dismutase (SOD), thiobarbituric acid reactive substances (TBARS), and reduced forms of coenzymes Q9 (CoQ9) and Q10 (CoQ10).” left out
(§2) Frozen liver tissue was homogenized in 5% trichloroacetic acid (TCA) supplemented with 5 mM EDTA under a stream of nitrogen gas, then centrifuged at 20,000 g for 10 min at 4° C. […] The total hepatic glutathione level representing the sum of GSH and GSSG was determined using dithiobis-2-nitrobenzoic acid (Griffith, O. W. Anal. Biochem. 1980, 106, 207-212). The GSSG level was determined after elimination of GSH by reaction with 2-vinylpyridine, and the actual GSH level was calculated by subtracting the GSSG level from the total glutathione.

For series [2], the system named is oxidized glutathione (GSSG). Kind of series: Hepatic GSSG assay. The conditions noted are these: NAPAP 400 mg/kg i.p. alone; liver, 24 h; mean ± SEM. The format is in vivo, mice. Here is the method: as §1, with “Blood samples were withdrawn by cardiac puncture for determination of alanine aminotransferase (ALT) activity using commercially available kit (Sigma 505-P). Liver was isolated and perfused with normal saline to wash out the blood. It was then used for determination of GSH, oxidized glutathione (GSSG), superoxide dismutase (SOD), thiobarbituric acid reactive substances (TBARS), and reduced forms of coenzymes Q9 (CoQ9) and Q10 (CoQ10).” left out
as §2

In series [3] the test system is superoxide dismutase (SOD). Description: Superoxide dismutase assay in mouse liver. The format is in vivo, mice. The conditions noted are these: NAPAP alone, FIG. 2. The procedure:
as §1, with “Blood samples were withdrawn by cardiac puncture for determination of alanine aminotransferase (ALT) activity using commercially available kit (Sigma 505-P). Liver was isolated and perfused with normal saline to wash out the blood. It was then used for determination of GSH, oxidized glutathione (GSSG), superoxide dismutase (SOD), thiobarbituric acid reactive substances (TBARS), and reduced forms of coenzymes Q9 (CoQ9) and Q10 (CoQ10).” left out
Determination of superoxide dismutase activity in mouse liver was based on inhibition of nitrite formation in reaction of oxidation of hydroxylammonium with superoxide anion radical (Elstner, E. F. and Heupel, A. Anal. Biochem. 1976, 70, 616-620). […] Optical absorbance at 530 nm was measured with Ultrospec III spectrophotometer (Pharmacia, LKB). The results were expressed as units of SOD activity calculated per milligram of protein.

In a further series the test system is CoQ9. Description: Coenzymes Q assay in liver: CoQ9. Particulars: NAPAP 400 mg/kg itself, FIG. 3. Type of series: in vivo, mice. Here is the method:
as §1, with “It was then used for determination of GSH, oxidized glutathione (GSSG), superoxide dismutase (SOD), thiobarbituric acid reactive substances (TBARS), and reduced forms of coenzymes Q9 (CoQ9) and Q10 (CoQ10).” left out
(§3) Determination of reduced forms of CoQ9 and CoQ10 was carried out by the method of Ikenoya et al. (Ikenoya, S. et al., Chem Pharm Bull. 1981, 29, 158-164). […] The extract was analyzed using HPLC with Jasco 840 EC detector and Chemosorb ODS-H column (4.6×250 mm). […]

A further series relates to CoQ10. Description: Coenzymes Q assay in liver: CoQ10. The format is in vivo, mice. The conditions noted are these: NAPAP 400 mg/kg itself, FIG. 3. Here is the method: as §1, with “It was then used for determination of GSH, oxidized glutathione (GSSG), superoxide dismutase (SOD), thiobarbituric acid reactive substances (TBARS), and reduced forms of coenzymes Q9 (CoQ9) and Q10 (CoQ10).” left out
as §3

Series [4] concerns antibody-forming cells (AFC) of splenocytes. Description: Antibody-producing response (AFC plaque assay) after SRBC sensitization. The conditions noted are these: NAPAP 400 mg/kg i.p.; SRBC-sensitized ICR mice. Type of series: in vivo. Here is the method: Experiments were performed on 10 groups of intact ICR mice consisting of 4 animals each. The first 5 groups were injected i.p. with the following single doses of TSM: 0, 10, 20, 30, and 40 mg/kg. The second 5 groups were injected similarly to the first groups with TSM, but after 2 h animals were again injected (i.p.) with 400 mg/kg NAPAP. One day after administration of TSM or TSM+NAPAP, mice were injected into the tail vein with 1×10^8 sheep red blood cells (SRBC) prepared in 0.2 mL of saline. An additional 4 animals received only SRBC (antigen control). Four days after their sensitization with SRBC, animals were sacrificed, and their spleens were removed. Single splenocytes were prepared from each spleen in 5 mL of RPMI-1640 media. Enumeration of the antibody-forming cells (AFC) was performed using a plaque assay (Jerne, N. K. and Nordin, A. A. Science 1963, 140, 405). AFC values were calculated for 10^6 splenocytes.

SMILES strings stand for the structures.

Regarding `CC(=O)Nc1ccc(O)cc1` [NAPAP, N-Acetyl-p-aminophenol], in the series on ICR mice (NAPAP 400 mg/kg administered alone), the Animal lethality came to 66%. Further, the “Mortality (dead/total)” value with ICR mice (NAPAP 400 mg/kg i.p. alone, 24 h of exposure) is recorded as 2/6. Also, the ALT in series [1] worked out at 2043 U/L. The compound also displayed a GSH with hepatic GSH (NAPAP 400 mg/kg i.p. alone, liver, 24 h, mean ± SEM) of 13 ± 1 nmol/mg prot. The “depletion of GSH level as compared to control” value in the series on hepatic GSH (NAPAP alone, 24 h after administration) was 2.6 fold. In addition, the GSSG in series [2] stood at 3.2 ± 0.4 nmol/mg prot. Also, the “decrease of SOD activity as compared to control” value in series [3] was around 4 fold. Further, in the series with CoQ9, the “content of CoQ9 diminished, compared to negative control” value came out at 60%. Also, the “coenzyme Q10 content diminished, compared to negative control” value in the series on CoQ10 amounted to 55%. The “suppression of AFC against the antigen control level” value in series [4] amounted to 26%.

(Values after patent US20060159780A1, “Prevention and amelioration of acetaminophen toxicity with tea melanin” (National Chiao Tung University, priority 2005, published 2006).)
